Experiments:
[1] = system: Pulmonary fibroblasts derived from a human fetus (IMR90); test: Test for inhibition of pulmonary fibroblast proliferation (BrdU incorporation); assay type: cell-based; conditions: Homo sapiens, IMR-90; IMR90; FGF 10 ng/mL; BrdU incorporation; read-out: IC50 value (nM) of inhibition effect of pulmonary fibroblast proliferation
Protocol: Measurement of inhibition effect of pulmonary fibroblast proliferation was performed by modifying the method of Huang et al. (American Journal of Respiratory Cell and Molecular Biology, 39, 482 (2008)). Pulmonary fibroblasts derived from a human fetus (IMR90, purchased from American Type Culture Collection) were cultured in DMEM medium containing 10% FBS and seeded at 1×10^4 cells/well of a 96-well plate. After culturing for approximately 8 hours in a carbon dioxide incubator, the medium was replaced with FBS-free DMEM medium and the culturing was performed for one night. On the following day, the medium was replaced with a new FBS-free DMEM medium, and then a test compound dissolved in dimethyl sulfoxide (final concentration: 0.1%) and FGF (final concentration: 10 ng/mL, manufactured by Wako Pure Chemical Industries, Ltd.) were added thereto and allowed to stand undisturbed in a carbon dioxide incubator. After 22 hours, a BrdU labeling solution (manufactured by Roche) was added and culturing was performed for another 2 hours. After the completion of the culturing, amount of BrdU incorporation was measured using Cell Proliferation ELISA BrdU (colorimetric) (manufactured by Roche). The concentration of the test compound required to inhibit BrdU incorporation to 50% (IC50 value) was calculated by non-linear regression of the test compound concentration and the amount of BrdU incorporation using EXSAS (Ver. 8.0.0, manufactured by Arm Systex).

[2] = target: human EP2 receptor (Homo sapiens (Human), UniProt P43116); test: Measurement of EP2 receptor binding action; conditions: membrane fraction of HEK293 cells expressing human EP2 receptor; [3H]prostaglandin E2 10 nM
Protocol: The membrane fraction was recovered on glass fiber filter paper (GF/B, manufactured by Whatman) using a cell harvester (M30R, manufactured by Brandel), and after washing with a buffer solution (10 mM MES-KOH (pH 6.0), 10 mM MgCl2), radioactivity was measured with a liquid scintillation analyzer (2000CA, manufactured by Packard). […] Ki=IC50/(1+([^3H]prostaglandin E2 concentration/Kd))
Note that the dissociation constant (Kd value) was calculated by Scatchard analysis.

human EP2 receptor, sequence (P43116 whole entry): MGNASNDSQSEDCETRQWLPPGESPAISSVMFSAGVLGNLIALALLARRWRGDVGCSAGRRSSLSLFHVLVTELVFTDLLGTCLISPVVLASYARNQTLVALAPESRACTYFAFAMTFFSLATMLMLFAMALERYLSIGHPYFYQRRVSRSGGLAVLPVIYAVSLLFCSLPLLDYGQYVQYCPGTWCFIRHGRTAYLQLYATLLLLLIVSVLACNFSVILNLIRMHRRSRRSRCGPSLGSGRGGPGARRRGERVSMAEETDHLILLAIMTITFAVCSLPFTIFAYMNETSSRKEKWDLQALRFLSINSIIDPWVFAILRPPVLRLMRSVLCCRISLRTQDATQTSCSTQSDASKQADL

- Ki [2]: 1.5 nM
SMILES: CCC=Cc1cccc(-c2ccc(CN(Cc3cccc(NCC(=O)O)n3)S(=O)(=O)c3ccccn3)cc2)c1 [Comparative example 9, (6-{[3′-(1-Butenyl)biphenyl-4-ylmethyl](pyridin-2-ylsulfonyl)aminomethyl}-pyridin-2-ylamino)acetic acid]
- IC50 [1]: 0.75 nM

Source: patent publication US9676720B2, “Substituted biaryl compound” (UBE INDUSTRIES, LTD., priority 2013, dated 2017)
